This is an account of results in the supplement of paper PMC10307832.

What all share (assay): relative viability (nuclei count vs DMSO), 5 days (fraction); higher = more cells survive
Compound in the experiment “Pictilisib + Palbociclib”: CS(=O)(=O)N1CCN(Cc2cc3nc(-c4cccc5[nH]ncc45)nc(N4CCOCC4)c3s2)CC1 [Pictilisib] + CC(=O)c1c(C)c2cnc(Nc3ccc(N4CCNCC4)cn3)nc2n(C2CCCC2)c1=O [Palbociclib] (partner 0.5 µM)
In outline:
(§1)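 After 5 days of treatment, lung cancer cells in 1536-well plates were fixed and stained in a single step (final 0.05% Triton X-100, 1% formaldehyde, 1 ug/ml Hoechst) and their nuclei counted on 4× images. Treatment had been applied by pin tool the day after seeding as one drug alone or as a fixed anchor-drug dose with five library-drug doses (not always all listed) in √10 steps. Relative viability is the nuclei count of treated wells divided by that of vehicle wells, and values are medians of duplicate plates.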

Compound in the experiment “Pictilisib + Pemetrexed”: CS(=O)(=O)N1CCN(Cc2cc3nc(-c4cccc5[nH]ncc45)nc(N4CCOCC4)c3s2)CC1 [Pictilisib] + Nc1nc2[nH]cc(CCc3ccc(C(=O)N[C@@H](CCC(=O)O)C(=O)O)cc3)c2c(=O)[nH]1 [Pemetrexed] (partner 0.2 µM)
In outline:
as §1

Compound in the experiment “Pictilisib + Decitabine”: CS(=O)(=O)N1CCN(Cc2cc3nc(-c4cccc5[nH]ncc45)nc(N4CCOCC4)c3s2)CC1 [Pictilisib] + Nc1ncn([C@H]2C[C@H](O)[C@@H](CO)O2)c(=O)n1 [Decitabine] (partner 2 µM)
In outline: as §1

Compound in the experiment “Pictilisib + Alpelisib”: CS(=O)(=O)N1CCN(Cc2cc3nc(-c4cccc5[nH]ncc45)nc(N4CCOCC4)c3s2)CC1 [Pictilisib] + Cc1nc(NC(=O)N2CCC[C@H]2C(N)=O)sc1-c1ccnc(C(C)(C)C(F)(F)F)c1 [Alpelisib] (partner 2 µM)
In outline: as §1

Compound in the experiment “Pictilisib + Phenformin”: CS(=O)(=O)N1CCN(Cc2cc3nc(-c4cccc5[nH]ncc45)nc(N4CCOCC4)c3s2)CC1 [Pictilisib] + N=C(N)NC(=N)NCCc1ccccc1 [Phenformin] (partner 250 µM)
In outline:
as §1

UMC-11: the relative viability with Pictilisib + Palbociclib (first compound 0.02 µM) was determined as 0.334; in the experiment with Pictilisib + Palbociclib (first compound 0.06325 µM), 0.318; with Pictilisib + Palbociclib (first compound 0.6325 µM) it was 0.427; in the experiment with Pictilisib + Palbociclib (first compound 2 µM), 0.376; with Pictilisib + Pemetrexed (first compound 0.02 µM), 0.784; with Pictilisib + Pemetrexed (first compound 0.06325 µM), 0.787. The relative viability with Pictilisib + Pemetrexed (first compound 0.6325 µM) was 0.737; in the experiment with Pictilisib + Pemetrexed (first compound 2 µM) it was 0.535; with Pictilisib + Decitabine (first compound 0.02 µM), 0.644; in the experiment with Pictilisib + Decitabine (first compound 0.06325 µM) it was 0.724; in the experiment with Pictilisib + Decitabine (first compound 0.6325 µM) it was 0.566; in the experiment with Pictilisib + Decitabine (first compound 2 µM), 0.519. Besides, the relative viability in the experiment with Pictilisib + Alpelisib (first compound 0.02 µM) amounted to 0.942; with Pictilisib + Alpelisib (first compound 0.06325 µM), 1.05; with Pictilisib + Alpelisib (first compound 0.6325 µM), 1.14; with Pictilisib + Alpelisib (first compound 2 µM), 1.17; with Pictilisib + Phenformin (first compound 0.02 µM) it was 0.331; in the experiment with Pictilisib + Phenformin (first compound 0.06325 µM) it was 0.346. The results for the relative viability with Pictilisib + Phenformin (first compound 0.6325 µM) and with Pictilisib + Phenformin (first compound 2 µM) were 0.312 and 0.315, respectively.
